The subject of experiment [1] is ocular hypertensive New Zealand White (NZW) rabbits. The experiment is described as follows: Intraocular pressure (IOP) lowering activity in ocular hypertensive NZW rabbits (hypertonic saline injection). Format: in vivo. To be noted: versus vehicle and versus basal IOP, mean±standard error, compound (12) 0.3%, travoprost 0.004% topical, hypertonic saline (5%) intravitreal. The method, then: Intraocular Pressure (IOP) Lowering Activity in Ocular Hypertensive New Zealand White (NZW) Rabbits
The Intraocular pressure (IOP) lowering activity of the combination of compound (12) (0.3%) and travoprost (0.004%) was assessed in ocular hypertensive rabbits.
Adult male NZW rabbits weighting 1.8-2.0 Kg were used in the experiments.
NZW rabbits were injected with 0.1 ml of hypertonic saline (5%) into the vitreous humor of both eyes. IOP was measured using a Tono-Pen AVIA Vet® at different time points (30, 60, 120 and 240 min) following hypertonic saline injection as well as before topical drug application (basal).
Travoprost (0.004%) or vehicle (5% cremophor-EL; 0.3% DMSO; 0.2 mg/ml BAC in PBS pH 6.0) were topically administered 15 min before hypertonic saline injection.
Compound (12) (0.3%) or vehicle (5% cremophor-EL; 0.3% DMSO; 0.2 mg/ml BAC in PBS pH 6.0) were topically administered immediately after hypertonic saline injection. Eyes were randomly assigned to different treatment groups.
One drop of 0.4% oxybuprocaine hydrochloride (Novesine, Sandoz) was instilled in each eye immediately before each set of ocular pressure measurements.
The ocular hypotensive effects (at […] following topical administration) of travoprost, compound (12) and the combination of compound (12) and travoprost are reported in table 2.
The results reported in table 2 are expressed as IOP change (at 30, 60, 120 and 300 minutes following topical administration) versus vehicle and versus IOP at basal (mean±standard error).

For experiment [2], the system named is ocular normotensive New Zealand White (NZW) rabbits. Kind of experiment: Intraocular pressure (IOP) lowering activity in ocular normotensive NZW rabbits. To be noted: versus vehicle and versus basal IOP, mean±standard error, compound (12) 0.1%, travoprost 0.004% eye drops. Format: in vivo. The method, then: Intraocular Pressure (IOP) Lowering Activity in Ocular Normotensive New Zealand White (NZW) Rabbits
The Intraocular pressure (IOP) lowering activity of the combination of compound (12) (0.1%) and travoprost (0.004%) was assessed in ocular normotensive rabbits.
Adults male NZW rabbits weighting 1.8-2.0 Kg were used in the experiments.
IOP was measured using a pneumatonometer 30 CLASSIC™ before topical application (basal) and at different time points (30, 60, 120, 180, 240 and 300 min) thereafter. Travoprost (0.004%) or vehicle (5% cremophor-EL; 0.3% DMSO; 0.2 mg/ml BAC in PBS pH 6.0) were topically administered 5 minutes prior to compound (12) (0.1%) or vehicle (same as above) as eye drops into the conjunctiva pocket. Eyes were randomly assigned to different treatment groups. One drop of 0.4% oxybuprocaine hydrochloride (Novesine, Sandoz) was instilled in each eye immediately before each set of ocular pressure measurements.
Results are reported in the table in which the ocular hypotensive activity of the combination, of compound (12) and of travoprost are expressed as IOP change (at 30, 60, 120 and 300 minutes following topical administration) versus vehicle and versus IOP at basal (mean±standard error).

[3] abbreviates: 30 minutes after topical administration.
The mark [4] stands for this setting: 60 minutes after topical administration.
[5] abbreviates: 120 minutes after topical administration.
Where [6] appears, read: 180 minutes after topical administration.
The mark [7] stands for this setting: 300 minutes after topical administration.

The structures appear in SMILES notation.

On to `O=C(CCC[C@@H](CO[N+](=O)[O-])O[N+](=O)[O-])O[C@@H]1CO[C@H]2[C@@H]1OC[C@H]2O` [Compound (12), (S)-((3R,3aR,6R,6aR)-6-hydroxyhexahydrofuro[3,2-b]furan-3-yl) 5,6-bis(nitrooxy)hexanoate], for which the IOP change is reported as −2.4 ± 0.6 mmHg in experiment [1] (30 minutes); −7.7 ± 0.5 mmHg in experiment [1] (60 minutes); −6.4 ± 0.5 mmHg in experiment [1] (120 minutes); −1.8 ± 0.6 mmHg in experiment [1] (240 minutes); −1.4 ± 0.6 mmHg in experiment [2] (setting [3]); −2.1 ± 0.4 mmHg in experiment [2] (setting [4]). The IOP change in experiment [2] (setting [5]) is −0.3 ± 0.3 mmHg; in experiment [2] (setting [6]), 0.1 ± 0.5 mmHg; in experiment [2] (setting [7]) it was 1.1 ± 0.8 mmHg.
Take `CC(C)OC(=O)CCC/C=C\C[C@@H]1[C@@H](/C=C/[C@@H](O)COc2cccc(C(F)(F)F)c2)[C@H](O)C[C@@H]1O` [Travoprost, 5-heptenoic acid, 7-[(1R,2R,3R,5S)-3,5-dihydroxy-2-[(1E,3R)-3-hydroxy-4-[3-(trifluoromethyl)phenoxy]-1-buten-1-yl]cyclopentyl]-, 1-methylethyl ester, (5Z)-]: the IOP change in experiment [1] (30 minutes) was −2.4 ± 0.5 mmHg; in experiment [1] (60 minutes), −5.0 ± 0.8 mmHg; in experiment [1] (120 minutes), −5.1 ± 0.7 mmHg; in experiment [1] (240 minutes), −1.7 ± 0.4 mmHg; in experiment [2] (setting [3]), −1.6 ± 1.6 mmHg; in experiment [2] (setting [4]) it was −0.9 ± 1.0 mmHg. The IOP change is −1.1 ± 1.2 mmHg in experiment [2] (setting [5]), −0.8 ± 0.4 mmHg in experiment [2] (setting [6]) and −0.6 ± 0.1 mmHg in experiment [2] (setting [7]).
